Measured values from patent US10287301B2 (Achillion Pharmaceuticals, Inc., priority 2015, dated 2019).

These molecules were tested against Human Factor D (Homo sapiens (Human), UniProt P00746) (assay: Human Factor D Assay). Details: not given.
Assay type: biochemical
Summary of the method: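 Thioesterase activity monitored with Z-L-Lys-SBzl plus Ellman's reagent (DTNB), each 100 μM final, after 5 min room-temperature compound preincubation of 80 nM human serum Factor D in pH 7.5 Tris (50 mM)/1M NaCl.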

Human Factor D, sequence (P00746 26-253): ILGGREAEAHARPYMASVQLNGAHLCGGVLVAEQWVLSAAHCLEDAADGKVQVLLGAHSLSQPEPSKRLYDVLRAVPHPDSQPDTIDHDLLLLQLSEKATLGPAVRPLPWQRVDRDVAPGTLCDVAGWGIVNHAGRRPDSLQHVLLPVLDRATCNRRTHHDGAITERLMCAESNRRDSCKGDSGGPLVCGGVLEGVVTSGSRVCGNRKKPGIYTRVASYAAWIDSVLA

| Structure (SMILES) | IC50 [nM] |
| --- | --- |
| CC(=O)c1nn(CC(=O)N2CCC[C@H]2C(=O)Nc2cccc(C)n2)c2ccc(-c3ccc4c(c3)CCC4)cc12 [Compound 572, (S)-1-(2-(3-Acetyl-5-(2,3-dihydro-1H-inden-5-yl)-1H-indazol-1-yl)acetyl)-N-(6-methylpyridin-2-yl)pyrrolidine-2-carboxamide] | 1000 to 10000 |

Same assay, conditions: Human Factor D, Table 3; read-out: IC50

| Structure (SMILES) | IC50 [nM] |
| --- | --- |
| CC(=O)c1nn(CC(=O)N2C[C@H](F)C[C@H]2C(=O)Nc2cccc(Br)n2)c2ccc(-c3cnc(Oc4ccncc4)nc3)cc12 [Compound 554, (2S,4R)-1-(2-(3-aAetyl-5-(2-(pyridin-4-yloxy)pyrimidin-5-yl)-1H-indazol-1-yl)acetyl)-N-(6-bromopyridin-2-yl)-4-fluoropyrrolidine-2-carboxamide] | < 1000 |
| CC(=O)c1nn(CC(=O)N2C[C@H](F)C[C@H]2C(=O)Nc2cccc(Br)n2)c2ccc(-c3cnc(COC(=O)N(C)C)nc3)cc12 [Compound 555, (5-(3-Acetyl-1-(2-((2S,4R)-2-((6-bromopyridin-2-yl)carbamoyl)-4-fluoropyrrolidin-1-yl)-2-oxoethyl)-1H-indazol-5-yl)pyrimidin-2-yl)methyl dimethylcarbamate] | < 1000 |
| CC(=O)c1nn(CC(=O)N2C[C@H](F)C[C@H]2C(=O)Nc2cccc(Br)n2)c2ccc(-c3cnc(NS(C)(=O)=O)nc3)cc12 [Compound 556, (2S,4R)-1-(2-(3-Acetyl-5-(2-(methylsulfonamido)pyrimidin-5-yl)-1H-indazol-1-yl)acetyl)-N-(6-bromopyridin-2-yl)-4-fluoropyrrolidine-2-carboxamide] | < 1000 |
| CC(=O)c1nn(CC(=O)N2[C@@H]3C[C@@H]3C[C@H]2C(=O)NC/C(F)=C(\C)c2ccccc2)c2ccc(-c3cnc(C)nc3)cc12 [Compound 557, (1R,3S,5R)-2-(2-(3-Acetyl-5-(2-methylpyrimidin-5-yl)-1H-indazol-1-yl)acetyl)-N—((Z)-2-fluoro-3-phenylbut-2-en-1-yl)-2-azabicyclo[3.1.0]hexane-3-carboxamide] | < 1000 |
| CC(=O)c1nn(CC(=O)N2C[C@H](F)C[C@H]2C(=O)Nc2ccn(CC(F)(F)F)n2)c2ccc(-c3cnc(N)nc3)cc12 [Compound 558, (2S,4R)-1-(2-(3-Acetyl-5-(2-aminopyrimidin-5-yl)-1H-indazol-1-yl)acetyl)-4-fluoro-N-(1-(S2,2,2-trifluoroethyl)-1H-pyrazol-3-yl)pyrrolidine-2-carboxamide] | < 1000 |
| CC(=O)c1nn(CC(=O)N2C[C@H](F)C[C@H]2C(=O)Nc2cccc(C(F)(F)F)n2)c2ccc(-c3cnc(N)nc3)cc12 [Compound 560, (2S,4R)-1-(2-(3-Acetyl-5-(2-aminopyrimidin-5-yl)-1H-indazol-1-yl)acetyl)-4-fluoro-N-(6-(trifluoromethyl)pyridin-2-yl)pyrrolidine-2-carboxamide] | < 1000 |
| CC(=O)c1nn(CC(=O)N2C[C@H](F)C[C@H]2C(=O)Nc2cccc(C(F)(F)F)n2)c2ccc(-c3cnc(C)nc3)cc12 [Compound 562, (2S,4R)-1-(2-(3-Acetyl-5-(2-methylpyrimidin-5-yl)-1H-indazol-1-yl)acetyl)-4-fluoro-N-(6-(trifluoromethyl)pyridin-2-yl)pyrrolidine-2-carboxamide] | < 1000 |
| CC(=O)c1nn(CC(=O)N2C[C@H](F)C[C@H]2C(=O)Nc2cccc(OC(F)(F)F)c2F)c2ccc(-c3cnc(N)nc3)cc12 [Compound 563, (2S,4R)-1-(2-(3-Acetyl-5-(2-aminopyrimidin-5-yl)-1H-indazol-1-yl)acetyl)-4-fluoro-N-(2-fluoro-3-(trifluoromethoxy)phenyl)pyrrolidine-2-carboxamide] | < 1000 |
| CCc1ncc(-c2ccc3c(c2)c(C(C)=O)nn3CC(=O)N2C[C@H](F)C[C@H]2C(=O)Nc2cccc(Br)n2)cn1 [Compound 566, (2S,4R)-1-(2-(3-Acetyl-5-(2-ethylpyrimidin-5-yl)-1H-indazol-1-yl)acetyl)-N-(6-bromopyridin-2-yl)-4-fluoropyrrolidine-2-carboxamide] | < 1000 |
| CC(=O)c1nn(CC(=O)N2C[C@H](F)C[C@H]2C(=O)Nc2cccc(Br)n2)c2ccc(-c3cnc(C(C)C)nc3)cc12 [Compound 567, (2S,4R)-1-(2-(3-Acetyl-5-(2-isopropylpyrimidin-5-yl)-1H-indazol-1-yl)acetyl)-N-(6-bromopyridin-2-yl)-4-fluoropyrrolidine-2-carboxamide] | < 1000 |
| CC(=O)c1nn(CC(=O)N2C[C@H](F)C[C@H]2C(=O)NC[C@@H]2CCN(C)C2)c2ccc(-c3cnc(C)nc3)cc12 [Compound 568, (2S,4R)-1-(2-(3-Acetyl-5-(2-methylpyrimidin-5-yl)-1H-indazol-1-yl)acetyl)-4-fluoro-N—(((S)-1-methylpyrrolidin-3-yl)methyl)pyrrolidine-2-carboxamide] | > 10000 |
| CC(=O)c1nn(CC(=O)N2C[C@H](F)C[C@H]2C(=O)NC[C@H]2CCN(C)C2)c2ccc(-c3cnc(C)nc3)cc12 [Compound 569, (2S,4R)-1-(2-(3-acetyl-5-(2-methylpyrimidin-5-yl)-1H-indazol-1-yl)acetyl)-4-fluoro-N—(((R)-1-methylpyrrolidin-3-yl)methyl)pyrrolidine-2-carboxamide] | > 10000 |
| CC(=O)c1nn(CC(=O)N2CC[C@H]2C(=O)Nc2cccc(C)n2)c2ccc(-c3ccc4c(c3)CCC4)cc12 [Compound 573, (S)-1-(2-(3-Acetyl-5-(2,3-dihydro-1H-inden-5-yl)-1H-indazol-1-yl)acetyl)-N-(6-methylpyridin-2-yl)azetidine-2-carboxamide] | > 10000 |
| CC(=O)c1nn(CC(=O)N2[C@@H]3C[C@@H]3C[C@H]2C(=O)Nc2nc(Br)ccc2CO)c2ccc(-c3cnc(C)nc3)cc12 [Compound 574, (1R,3S,5R)-2-(2-(3-acetyl-5-(2-methylpyrimidin-5-yl)-1H-indazol-1-yl)acetyl)-N-(6-bromo-3-(hydroxymethyl)pyridin-2-yl)-2-azabicyclo[3.1.0] hexane-3-carboxamide] | < 1000 |
| CC(=O)c1nn(CC(=O)N2[C@@H]3C[C@@H]3C[C@H]2C(=O)NC/C(F)=C\c2ccccc2)c2ccc(-c3cnc(C)nc3)cc12 [Compound 575, (1R,3S,5R)-2-(2-(3-Acetyl-5-(2-methylpyrimidin-5-yl)-1H-indazol-1-yl)acetyl)-N-((E)-2-fluoro-3-phenylallyl)-2-azabicyclo[3.1.0]hexane-3-carboxamide] | < 1000 |
| CC(=O)c1nn(CC(=O)N2C[C@H](F)C[C@H]2C(=O)Nc2cccc(C3CC3)n2)c2ccc(-c3cnc(C)nc3)cc12 [Compound 576, (2S,4R)-1-(2-(3-Acetyl-5-(2-methylpyrimidin-5-yl)-1H-indazol-1-yl)acetyl)-N-(6-cyclopropylpyridin-2-yl)-4-fluoropyrrolidine-2-carboxamide] | < 1000 |
| COc1cccc(NC(=O)[C@@H]2C[C@@H](F)CN2C(=O)Cn2nc(C(C)=O)c3cc(-c4cnc(C)nc4)ccc32)n1 [Compound 580, (2S,4R)-1-(2-(3-Acetyl-5-(2-methylpyrimidin-5-yl)-1H-indazol-1-yl)acetyl)-4-fluoro-N-(6-methoxypyridin-2-yl)pyrrolidine-2-carboxamide] | < 1000 |
| CC(=O)c1nn(CC(=O)N2C[C@H](F)C[C@H]2C(=O)Nc2cncc(C(F)(F)F)n2)c2ccc(-c3cnc(C)nc3)cc12 [Compound 581, (2S,4R)-1-(2-(3-Acetyl-5-(2-methylpyrimidin-5-yl)-1H-indazol-1-yl)acetyl)-4-fluoro-N-(6-(trifluoromethyl)pyrazin-2-yl)pyrrolidine-2-carboxamide] | < 1000 |
